Common to all, as to assay type: in vitro ADME
Series [1] is described as follows: In vitro liver microsomal metabolism study, rat. The settings on record: rat liver microsomes. As to the method:
Metabolic stability was assessed by incubating compounds in the presence of human, rat, and mouse liver microsomal fractions (Xenotech, Kansas City, KS, USA). All chemicals and reagents, including control compounds, were purchased from commercial sources such as Sigma-Aldrich (St. Louis, MO, USA) or Toronto Research Chemicals (North York, ON, Canada). Liver microsomal incubations were conducted with 100 mM phosphate buffer, 0.5 mg/mL of liver microsomal protein, 2 mM NADPH, 2.5 mM UDPGA, 3 mM MgCl2, alamethicin, and 1 μM test article for a total incubation volume of 80 µL. All reagents except the liver microsomes were mixed together and aliquoted (60 μL) into 96-well plates. The reaction was initiated by adding the microsomes (20 μL). At 0, 3, 7, 12, 20, and 30 min time points, the reactions were terminated with the addition of acetonitrile-containing carbutamide (as an internal standard). The terminated samples were then centrifuged at 2 °C to pellet the protein and the supernatant was injected onto an LC–MS. The test article was monitored for loss over time and the t1/2 was determined. The calculated t1/2 was then used as described below to determine the Eh (hepatic extraction ratio) for both human and rat.
The intrinsic clearance (CLint), hepatic clearance (CLh), and hepatic extraction ratio (Eh) were calculated using the equations below. CLint = (0.693/t1/2 in vitro) × (mL incubation volume/mg microsomal protein) × (X mg of microsomal protein/gram of liver) × (Y g of liver/kg of body weight)(1) CLh = Q × CLint/Q + CLint(2) Eh = CLh/Q(3) where: • CLint = intrinsic clearance (calculated from microsomal incubations) • X = 40 for human, 41.5 for rat and 45 for mouse • Y = 21.4 for human, 40 for rat and 50 for mouse • t1/2 = half-life • CLh = hepatic clearance • Q = liver blood flow rate = 1.24 L/h/kg for human, 4.8 L/h/kg for rat, and 5.4 L/h/kg for mouse • Eh = hepatic extraction ratio • CLh = hepatic clearance

In another series the target is T1, CYP2C8 (Homo sapiens, UniProt P10632).
T1 construct: from tissue; host or cells: pooled human liver microsomes (n = 200)
T1 sequence (P10632 1-490): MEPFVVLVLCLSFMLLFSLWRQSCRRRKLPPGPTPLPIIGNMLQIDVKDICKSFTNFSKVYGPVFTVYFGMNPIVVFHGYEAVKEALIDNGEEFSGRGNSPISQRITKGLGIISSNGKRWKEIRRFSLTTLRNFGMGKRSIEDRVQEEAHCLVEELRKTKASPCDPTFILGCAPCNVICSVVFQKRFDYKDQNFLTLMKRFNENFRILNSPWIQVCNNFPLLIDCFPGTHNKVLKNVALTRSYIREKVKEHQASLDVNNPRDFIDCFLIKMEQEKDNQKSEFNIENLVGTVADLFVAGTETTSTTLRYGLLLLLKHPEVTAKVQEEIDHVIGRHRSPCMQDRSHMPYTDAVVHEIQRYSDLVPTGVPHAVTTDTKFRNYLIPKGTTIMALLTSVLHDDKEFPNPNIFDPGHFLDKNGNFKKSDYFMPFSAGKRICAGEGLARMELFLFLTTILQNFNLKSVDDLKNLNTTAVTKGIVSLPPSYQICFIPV
The series is described as follows: Reversible CYP inhibition in pooled HLMs. The settings on record: 30 µM compound, substrate amodiaquine. As to the method:
(§1) All chemicals and reagents including control compounds were purchased from commercial sources such as Sigma-Aldrich or Toronto Research Chemicals. The test article was tested for reversible inhibition of CYPs in human liver microsomes (HLM) (0.2 mg/mL protein) at a concentration range of 0–30 μM. Each condition was incubated in duplicate. The test article (0–30 μM), NADPH, and the CYP-selective probe substrate were incubated in a 96-well plate at 37 °C in 0.1 M potassium phosphate buffer, pH 7.4. The reactions were initiated by adding the HLMs. The total reaction volume was 100 μL.
(§2) After the incubation period (10 min for CYP1A2, 2B6, and 2C9; 15 min for CYP2C19; and 4 min for CYP2C8 and 2D6 to accommodate linear kinetic conditions) at 37 °C, the reactions were terminated by the addition of 100 μL of ice-cold acetonitrile-containing carbutamide as an IS, then centrifuged at 2500× g for 10 min at 2 °C. A 150 μL aliquot of supernatant for each CYP assay, except for CYP1A2, was then transferred to a new plate for analysis. For CYP1A2, 80 μL of supernatant was transferred to the plate and further diluted with 80 μL of water before analysis. All samples were analyzed with liquid chromatography with tandem mass spectrometry (LC–MS/MS).

Another series addresses T2, CYP2C19 (Homo sapiens, UniProt P33261).
T2 construct: from tissue; host or cells: pooled human liver microsomes (n = 200)
Briefly: Reversible CYP inhibition in pooled HLMs. The conditions noted are these: 30 µM compound, substrate S-mephenytoin. The procedure:
as §1, §2

A further series has as its target T3, CYP2D6 (Homo sapiens, UniProt P10635).
T3 construct: from tissue; host or cells: pooled human liver microsomes (n = 200)
Briefly: Reversible CYP inhibition in pooled HLMs. The conditions noted are these: 30 µM compound, substrate dextromethorphan. As to the method: as §1, §2

The next series deals with T4, CYP1A2 (Homo sapiens, UniProt P05177).
T4 construct: from tissue; host or cells: pooled human liver microsomes (n = 200)
T4 sequence (P05177 1-516): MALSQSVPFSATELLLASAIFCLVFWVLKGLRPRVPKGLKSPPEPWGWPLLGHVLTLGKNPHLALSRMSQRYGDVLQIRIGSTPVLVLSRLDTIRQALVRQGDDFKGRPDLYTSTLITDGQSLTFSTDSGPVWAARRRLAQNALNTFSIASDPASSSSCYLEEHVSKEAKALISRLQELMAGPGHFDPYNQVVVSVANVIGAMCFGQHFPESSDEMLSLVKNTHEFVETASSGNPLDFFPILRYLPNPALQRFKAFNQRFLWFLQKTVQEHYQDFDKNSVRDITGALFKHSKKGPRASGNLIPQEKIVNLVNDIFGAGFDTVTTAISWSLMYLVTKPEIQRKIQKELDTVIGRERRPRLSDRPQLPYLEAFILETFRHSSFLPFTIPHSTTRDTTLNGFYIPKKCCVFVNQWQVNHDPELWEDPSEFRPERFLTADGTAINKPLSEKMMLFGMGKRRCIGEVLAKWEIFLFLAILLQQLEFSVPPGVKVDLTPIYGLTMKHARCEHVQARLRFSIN
The series is described as follows: Reversible CYP inhibition in pooled HLMs. The settings on record: 30 µM compound, substrate phenacetin. The procedure:
as §1, §2

For another series, the target named is T5, CYP2C9 (Homo sapiens, UniProt P11712).
T5 construct: from tissue; host or cells: pooled human liver microsomes (n = 200)
T5 sequence (P11712 whole entry): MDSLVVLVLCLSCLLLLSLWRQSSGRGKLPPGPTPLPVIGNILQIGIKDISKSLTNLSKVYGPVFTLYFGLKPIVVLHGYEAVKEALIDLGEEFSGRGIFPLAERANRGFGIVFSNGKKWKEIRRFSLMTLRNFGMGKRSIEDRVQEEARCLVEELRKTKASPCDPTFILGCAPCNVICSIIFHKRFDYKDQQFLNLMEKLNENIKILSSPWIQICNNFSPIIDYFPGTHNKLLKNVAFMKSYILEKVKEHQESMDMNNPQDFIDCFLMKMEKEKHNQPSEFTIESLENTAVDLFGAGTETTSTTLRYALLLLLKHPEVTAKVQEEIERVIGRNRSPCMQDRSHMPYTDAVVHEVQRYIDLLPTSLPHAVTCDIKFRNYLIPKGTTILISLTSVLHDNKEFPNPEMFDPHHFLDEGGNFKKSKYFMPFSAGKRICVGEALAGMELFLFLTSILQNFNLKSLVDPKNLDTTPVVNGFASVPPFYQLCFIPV
Briefly: Reversible CYP inhibition in pooled HLMs. The conditions noted are these: 30 µM compound, substrate diclofenac. As to the method:
as §1, §2

T2 sequence (P33261 whole entry): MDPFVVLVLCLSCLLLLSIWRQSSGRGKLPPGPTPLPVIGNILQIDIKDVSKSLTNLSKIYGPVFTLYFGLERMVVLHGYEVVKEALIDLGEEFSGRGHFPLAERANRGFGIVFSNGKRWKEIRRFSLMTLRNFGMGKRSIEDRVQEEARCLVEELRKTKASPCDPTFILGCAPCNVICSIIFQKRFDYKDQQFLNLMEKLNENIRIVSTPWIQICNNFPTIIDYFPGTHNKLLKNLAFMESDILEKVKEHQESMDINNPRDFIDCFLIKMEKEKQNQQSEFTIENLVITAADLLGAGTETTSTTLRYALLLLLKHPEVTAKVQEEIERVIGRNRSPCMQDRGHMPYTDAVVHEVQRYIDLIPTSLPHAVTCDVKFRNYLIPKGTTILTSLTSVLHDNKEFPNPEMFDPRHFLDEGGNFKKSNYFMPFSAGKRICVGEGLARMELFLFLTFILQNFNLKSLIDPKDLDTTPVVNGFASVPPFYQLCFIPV
T3 sequence (P10635 whole entry): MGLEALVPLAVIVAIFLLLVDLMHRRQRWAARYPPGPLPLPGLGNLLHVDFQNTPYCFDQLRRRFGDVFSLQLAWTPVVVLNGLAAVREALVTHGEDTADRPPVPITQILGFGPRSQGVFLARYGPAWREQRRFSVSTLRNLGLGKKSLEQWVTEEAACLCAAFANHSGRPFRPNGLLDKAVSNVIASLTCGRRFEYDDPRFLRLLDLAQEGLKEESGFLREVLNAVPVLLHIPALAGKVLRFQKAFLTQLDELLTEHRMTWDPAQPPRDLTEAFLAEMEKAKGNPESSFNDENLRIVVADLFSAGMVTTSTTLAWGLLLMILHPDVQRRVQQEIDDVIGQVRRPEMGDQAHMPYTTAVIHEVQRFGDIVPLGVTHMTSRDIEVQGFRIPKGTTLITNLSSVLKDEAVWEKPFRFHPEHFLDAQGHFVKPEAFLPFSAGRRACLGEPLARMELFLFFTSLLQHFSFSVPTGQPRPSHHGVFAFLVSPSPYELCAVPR

Take `O=C(CCCCCCCn1cc(CCCF)nn1)N1[C@@H]2[C@H](O)[C@@H](O)[C@@H](O)[C@@H](CO)[C@@H]21` [AGAL]: in series [1], the CLh was 55.7 mL/min/kg; the “Eh (hepatic extraction ratio)” value was found to be 0.695; the “microsomal stability, clearance in words” value is on record as “moderately cleared”. Further, the CLint scaled at 1 µM in series [1] (1 μM, NADPH + UDPGA) was 182 mL/min/kg. In addition, the “reversible inhibition of CYP2C8 activity” value on CYP2C8 is given as “no significant loss of CYP activity”. Moreover, the “reversible inhibition of CYP2C19 activity” value at CYP2C19 is “no significant loss of CYP activity”. The “reversible inhibition of CYP2D6 activity” value at CYP2D6 is reported as “no significant loss of CYP activity”. In addition, on CYP1A2, the “reversible inhibition of CYP1A2 activity” value was “no significant loss of CYP activity”. For the same molecule, the “reversible inhibition of CYP2C9 activity” value at CYP2C9 is given as “no significant loss of CYP activity”.

The values are drawn from PMC10609273, “Radiosynthesis and Early Evaluation of a Positron Emission Tomography Imaging Probe [^18F]AGAL Targeting Alpha-Galactosidase A Enzyme for Fabry Disease” (Molecules, 2023).
